The values below come from EP4796171A2 (Zealand Pharma A/S, priority 2017, dated 2018).

In one data set the target is T1, human GLP-2 receptors (Homo sapiens, UniProt O95838, D470N).
T1 sequence (O95838 1-553 D470N): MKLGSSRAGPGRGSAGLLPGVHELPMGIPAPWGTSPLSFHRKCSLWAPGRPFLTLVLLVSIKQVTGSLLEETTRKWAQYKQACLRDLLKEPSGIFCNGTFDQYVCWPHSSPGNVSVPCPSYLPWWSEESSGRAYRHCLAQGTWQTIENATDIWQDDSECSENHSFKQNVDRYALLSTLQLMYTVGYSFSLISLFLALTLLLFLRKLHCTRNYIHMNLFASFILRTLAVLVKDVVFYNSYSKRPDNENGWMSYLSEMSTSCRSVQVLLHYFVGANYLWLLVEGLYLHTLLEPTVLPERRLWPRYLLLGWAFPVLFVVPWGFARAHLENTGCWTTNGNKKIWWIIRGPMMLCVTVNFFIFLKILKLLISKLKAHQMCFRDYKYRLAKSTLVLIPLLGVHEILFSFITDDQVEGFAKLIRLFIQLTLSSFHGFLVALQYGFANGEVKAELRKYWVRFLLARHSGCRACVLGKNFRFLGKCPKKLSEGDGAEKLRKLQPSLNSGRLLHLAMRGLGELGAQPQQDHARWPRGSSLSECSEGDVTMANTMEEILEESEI
Briefly: GLP-2 receptor efficacy assay (cAMP AlphaScreen). In kind it is cell-based. From the text:
The hGLP2-R was purchased from MRC-geneservice, Babraham, Cambridge as an Image clone: 5363415 (11924-117). For subcloning into a mammalian expression vector, primers for subcloning were obtained from DNA-Technology, Risskov, Denmark. The 5' and 3' primers used for the PCR reaction include terminal restriction sites for cloning and the context of the 5' primer is modified to a Kozak consensus without changing the sequence of the product encoded by the ORF. A standard PCR reaction was run using Image clone 5363415 (11924-117) as a template with the above mentioned primers and Polymerase Herculase II Fusion in a total vol. of 50µl. The generated PCR product was purified using GFX PCR and Gel band purification kit, digested with restriction enzymes and cloned into the mammalian expression vector using Rapid DNA Ligation Kit. Ligation reaction was transformed to XL10 Gold Ultracompetent cells and colonies were picked for DNA production using Endofree Plasmid maxi kit. Subsequent sequence analysis was conducted by MWG Eurofins, Germany.
HEK293 cells were transfected using the Lipofectamine PLUS transfection method. The day before transfection, HEK293 cells were seeded in two T75 flasks at a density of 2 x 10^6 cells / T75 flask in cell culturing medium without antibiotics. On the day of transfection, cells were washed with 1x DPBS and medium was replaced with Optimem to a volume of 5 mL / T75 flask before addition of Lipofectamine-plasmid complexes were added gently and drop wise to the cells in T75 flasks and replaced with growth medium after 3 hours and again to growth medium supplemented with 500µg/mL G418 after 24 hours. After 4 weeks in G418 selection, clones were picked and tested in a functional assay.
The cAMP AlphaScreen® assay from Perkin Elmer was used to quantitate the cAMP response to activation of the GLP2 receptor. […] Table 2: GLP-2R EC50 measurements
(In Alpha technology, singlet oxygen from a donor bead excites a nearby acceptor bead.)

A short description of data set [1]: Phase 2 clinical trial, PK profile of ZP1848 and metabolites in SBS patients. Format: in vivo, human. The following applies: for Conc.: plasma. On the procedure:
A phase 2 clinical trial was conducted to i.a. determine the PK profile of ZP1848 and metabolites in human SBS patients.
The study was designed as a randomized, cross-over and double-blinded with three different doses of ZP1848 (10 mg, 1 mg, 0.1 mg) in 16 SBS patients.
The 18 SBS patients (16 patients completed the study) were randomized evenly and in a double-blinded fashion to each of the six cross-over dose level combinations: 10 mg/1 mg, 10 mg/0.1 mg, 1 mg/10 mg, 1 mg/0.1 mg, 0.1 mg/10 mg, 0.1 mg/1 mg of ZP1848. The patients were injected once daily (QD) subcutaneously with the above doses of ZP1848.
Blood samples for PK analysis were collected on several study visits throughout the study period: the study comprised a 1st baseline balance study (4 days), a 1st treatment period (21 days) including a 1st treatment balance study (last 4 days of 1st treatment period), followed by a wash-out period (at least 4 weeks); and a 2nd baseline balance study (4 days), a 2nd treatment period (21 days) including a 2nd treatment balance study (last 4 days of 2nd treatment period) and a follow-up period (at least 4 weeks).
PK sampling was performed at visit 11 (1st treatment, balance study) and visit 17 (second day of 2nd baseline study - after a wash out period), and again at visit 25 (2nd treatment balance study) and at visit 29 (last day of follow-up period).
At day visit 11 and visit 25 a full PK profile in steady state was investigated. PK samples were taken prior to injection of ZP1848, and at the following time points (+/- 10 minutes) after trial product administration: 1h, 2h, 4h, 6h, 8h, 10h, 12h and 24h. Each PK sample contained 2 mL of blood, resulting in a total of […] blood drawn for PK purposes. The plasma sample was immediately stored at -80°C after sampling.
Plasma samples were analyzed after immunoaffinity extraction followed by liquid chromatography mass spectrometry (LC-MS/MS). For each patient plasma concentrations were used for calculation of the pharmacokinetic parameters using the non-compartmental approach in Excel. Plasma terminal elimination half-life (T½) was determined as In(2)/ke where ke is the magnitude of the slope of the log linear regression of the log concentration versus time profile during the terminal phase.

A short description of data set [2]: plasma of healthy subjects after SC injections (once daily or once weekly) or single IV infusion of glepaglutide. Conditions: human, up to 168 hours post dose.
A short description of data set [3]: plasma samples from SBS patients injected once daily (QD) subcutaneously with ZP1848. The following applies: human, up to Day 56.
The subject of a further data set is Beagle Dogs. Kind of data set: 39-week subcutaneous administration to beagle dogs with 6-week recovery, intestine length and weight. In kind it is in vivo. The following applies: vs controls. On the procedure:
ZP1848 (0.25, 1 or 5 mg/kg/day) was given for 39 weeks subcutaneously to beagle dogs (22 to 24 weeks). Vehicle was used as the control. Recovery from any effect was evaluated during a 6 week recovery period. The study was conducted in accordance with the applicable sections of the United Kingdom Animals (Scientific Procedures) Act 1986, Amendment Regulations 2012 (the Act).
After 39 weeks the dogs were sacrificed and all animals were subject to a detailed necropsy. The length of the small and large intestines were measured separately and recorded in centimeters. The entire length of the gastrointestinal tract (starting at the duodenum and ending at the rectum) was removed and trimmed of any excessive mesentery, connective or adipose tissue and the measurements for the small and large intestine recorded by laying the small intestine and large intestine on a clean surface and measured with a tape measure. The sections required for histopathology were left unopened and flushed through with water. The remainder were opened, cleaned with water, carefully blotted dry prior to weighing. On completion of length and weight measurements, the gastrointestinal tract was processed and fixed in 10% Neutral Buffered Formalin, as per standard necropsy practice for this species.

Another data set relates to Wistar rats. Kind of data set: Intestinotrophic effects after 26 weeks of daily SC dosing in rats. Format: in vivo. The procedure: Wistar rats were dosed subcutaneously (SC) with vehicle, 1, 3 and 10 mg/kg ZP1848 on a daily basis for 26 weeks. Further sub-groups of control and high-dose animals were allowed a 6-week recovery period following completion of the dosing period. […] The length and the weight of the small and large intestines were measured at necropsy as indicators of intestinotrophic effects and the intestinal tract was evaluated histologically.

Another data set deals with SBS patients. Briefly: Fecal wet weight output in SBS-IF/SBS-II patients (metabolic balance studies). In kind it is in vivo, human. The following applies: change from baseline. The procedure: The study was designed as a randomized, cross-over and double-blinded with three different doses of ZP1848 (10 mg, 1 mg, 0.1 mg) in 16 SBS patients. The study protocol was approved by the Danish Medical Agency and The Danish Committee on Health Research Ethics.
The 18 SBS patients were randomized evenly and in a double-blinded fashion to each of the six cross-over dose level combinations: 10 mg/1 mg, 10 mg/0.1 mg, 1 mg/10 mg, 1 mg/0.1 mg, 0.1 mg/10 mg, 0.1 mg/1 mg of ZP1848. The SBS patient group comprised 9 females, 9 males; hereof 13 SBS-IF patients and 5 SBS-II patients. Mean age was 62 years, mean short bowel length was 110 cm, and two SBS-IF patients had > 50% colon in continuity. The patients were injected once daily subcutaneously with the above doses of ZP1848.
The aim of this study was to evaluate efficacy of ZP1848 on fecal wet weight output in patients with SBS-II and SBS-IF and thus the absolute change from baseline in wet weight of fecal output as measured by metabolic balance studies prior to and on the […] of each treatment period.

The conditions of data set [4]: background statement; cited from earlier work.
Setting [5] is: females, 5 mg/kg/day SC, 39 weeks.
[6] abbreviates: females, end of six-week recovery period.
The mark [7] stands for this setting: males, 5 mg/kg/day SC, 39 weeks.
[8] abbreviates: males, end of six-week recovery period.
Where [9] appears, read: females, 10 mg/kg SC daily, 26 weeks, main study animals.
Setting [10] is: females, 10 mg/kg, recovery animals (6-week recovery).
The mark [11] stands for this setting: males, 10 mg/kg SC daily, 26 weeks, main study animals.
Setting [12] is: males, 10 mg/kg, recovery animals (6-week recovery).

“And” between values parts separate entries of the source, which are not always exact repeats. Equal values may be shown once. “Also recorded” adds a separate entry of the source. Read-outs that look alike come from different tables or passages of the source.

For orientation: EC50 means the concentration needed to bring the measured effect to its halfway point. Low readings indicate greater potency, high ones weaker potency. At human GLP-2 receptors, “H-HGEGSFSSELSTILDALAARDFIAWLIATKITDKKKKKK-NH2 [ZP1846]” came in with an EC50 of 0.26 nM. This lies in the sub-nanomolar range.

Regarding “H-HGEGTFSSELATILDALAARDFIAWLIATKITDKK-OH [ZP2711]”, at human GLP-2 receptors, the half-maximal effective concentration (EC50) was 0.072 nM. Also, the in vitro potency entry on human GLP-2 receptors (in words, relative to ZP1848) was “comparable to ZP1848”. Also, the plasma level entry in data set [1] (in words, relative to ZP1848 after administration of ZP1848) is “in the same range as that of ZP1848”. Moreover, the Conc. in data set [1] (Day 0 (visit 11 or 25, treatment balance study), ZP1848 SC once daily, individual subjects) was 0.131 nM and 0.543 nM; in data set [1] (Day 28-56 (visit 17 or 29, after wash-out/follow-up), individual subjects) it was 0.0326 nM and 0.0614 nM. The Half-life in data set [1] (terminal, from Day 0 and wash-out/follow-up concentrations, individual subjects) is 240 h.

“H-HGEGTFSSELATILDALAARDFIAWLIATKITDKKK-OH [ZP2949]” yielded an EC50 at human GLP-2 receptors of 0.11 nM.

With “H-HGEGTFSSELATILDALAARDFIAWLIATKITDKKKKKK-NH2”, the fragment found entry in data set [2] is “ZP2469 (ZP18481-34), major; also recorded: ZP2711 (ZP18481-35), major”; in data set [3] it was “ZP2469, major; also recorded: ZP2711, major”.

As for “H-HGEGTFSSELATILDALAARDFIAWLIATKITDKKKKKK-NH2 [ZP1848] [listing 1 of 2 here]”, the “increase in small intestine length” value is listed as 37% in the data set with Beagle Dogs (setting [5]), 19% in the data set with Beagle Dogs (setting [6]), 46% in the data set with Beagle Dogs (setting [7]) and 16% in the data set with Beagle Dogs (setting [8]). For the same substance, the “increase in small intestine weight” value with Beagle Dogs (setting [5]) is listed as 80%; with Beagle Dogs (setting [6]) it was 34%; with Beagle Dogs (setting [7]), 103%; in the data set on Beagle Dogs (setting [8]), 78%. The “SI length, percentage increase relative to control group” value with Wistar rats (setting [9]) turned out to be 47%; in the data set on Wistar rats (setting [10]), 45%; in the data set on Wistar rats (setting [11]), 38%; in the data set with Wistar rats (setting [12]), 39%. The “SI weight, percentage increase relative to control group” value in the data set on Wistar rats (setting [9]) worked out at 238%; in the data set on Wistar rats (setting [10]) it was 101%; in the data set on Wistar rats (setting [11]), 190%; in the data set with Wistar rats (setting [12]), 85%. For the same substance, the “length and weight of the small intestines” value in the data set with Wistar rats (in words, 1, 3 and 10 mg/kg SC daily, 26 weeks) is “dose-related significant (p<0.01) increases”. The “length and weight of the large intestine” value with Wistar rats (in words, 26 weeks SC daily) is recorded as “slightly increased”. Besides, in the data set with Wistar rats (in words, histology, 26 weeks SC daily), the “mucosal hyperplasia of the duodenum, jejunum and ileum” value is reported as “dose-related increase”. Moreover, the “Changes in Absolute Fecal Wet Weight Output (Means)” value in the data set on SBS patients (IF (n=11), 0.1 mg SC once daily) is given as 196 g/day; in the data set with SBS patients (IF (n=11), 1 mg + 10 mg pooled), -741 g/day; in the data set with SBS patients (IF (n=11), 1 mg SC once daily), -587 g/day; in the data set on SBS patients (IF (n=11), 10 mg SC once daily) it was -894 g/day; with SBS patients (II (n=5), 0.1 mg SC once daily) it was -37 g/day; in the data set with SBS patients (II (n=5), 1 mg + 10 mg pooled) it was -570 g/day. Moreover, the “Changes in Absolute Fecal Wet Weight Output (Means)” value in the data set on SBS patients (II (n=5), 1 mg SC once daily) is recorded as -303 g/day; with SBS patients (II (n=5), 10 mg SC once daily), -837 g/day; in the data set with SBS patients (II+IF (n=16), 0.1 mg SC once daily) it was 173 g/day; in the data set with SBS patients (II+IF (n=16), 1 mg + 10 mg pooled), -713 g/day; with SBS patients (II+IF (n=16), 1 mg SC once daily), -592 g/day; in the data set on SBS patients (II+IF (n=16), 10 mg SC once daily), -833 g/day.

For the substance “H-HGEGTFSSELATILDALAARDFIAWLIATKITDKKKKKK-NH2 [ZP1848] [listing 2 of 2 here]”, on human GLP-2 receptors, a half-maximal effect (EC50) was put at 0.3 nM. In other words, the sub-nanomolar range.

In the case of lixisenatide, the Half-life in data set [4] was 2 to 4 h.
